Toxic doses and inconclusive results are not listed. No stated cut-off is given here; in the data, active means T/C of 150% or more; inactive means T/C below 125%.
Test system: L1210 leukemia ip in BDF1 mice, survival T/C
Test: NCI In Vivo Anticancer Drug Screen. Data for tumor model L1210 Leukemia (intraperitoneal) in B6D2F1 (BDF1) mice
Conditions: endpoint: mean survival time, higher = longer survival
Outline: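 Tumor was transplanted into mice, which were then dosed with test compound or vehicle alone. Survival was recorded for each group, and the treated figure was expressed relative to the control figure.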

[1] = dose: 100.0 mg/kg/injection, schedule: Q04DX002 (ip), vehicle: Klucel (hydroxypropylcellulose) (HPC)
[2] = dose: 200.0 mg/kg/injection, schedule: Q04DX002 (ip), vehicle: Klucel (hydroxypropylcellulose) (HPC)
[3] = dose: 100.0 mg/kg/injection, schedule: Q01DX009 (ip), vehicle: saline with Tween-80
[4] = dose: 100.0 mg/kg/injection, schedule: Q04DX003 (ip), vehicle: saline with Tween-80
[5] = dose: 200.0 mg/kg/injection, schedule: Q01DX009 (ip), vehicle: saline with Tween-80
[6] = dose: 200.0 mg/kg/injection, schedule: Q04DX003 (ip), vehicle: saline with Tween-80
[7] = dose: 400.0 mg/kg/injection, schedule: Q04DX003 (ip), vehicle: saline with Tween-80
[8] = dose: 25.0 mg/kg/injection, schedule: Q04DX003 (ip), vehicle: saline with Tween-80
[9] = dose: 50.0 mg/kg/injection, schedule: Q04DX003 (ip), vehicle: saline with Tween-80
[10] = dose: 100.0 mg/kg/injection, schedule: Q04DX003 (ip), vehicle: Klucel (hydroxypropylcellulose) (HPC)
[11] = dose: 200.0 mg/kg/injection, schedule: Q04DX003 (ip), vehicle: Klucel (hydroxypropylcellulose) (HPC)
[12] = dose: 100.0 mg/kg/injection, schedule: Q01DX009 (ip), vehicle: Klucel (hydroxypropylcellulose) (HPC)

Measured: T/C

NC(=S)N/N=C/c1c(Cl)n(C(=O)c2ccc(Cl)cc2)c2ccccc12
inactive: dose: 50.0 mg/kg/injection, schedule: Q04DX002 (ip), vehicle: Klucel (hydroxypropylcellulose) (HPC) 91 % of control | [1] 87 % of control | [2] 91 % of control

CCc1c(Nc2ccccc2C)nc(N)[nH]c1=O
inactive: dose: 100.0 mg/kg/injection, schedule: Q01DX Z (ip), vehicle: methylcellulose (MC) 100 % of control | dose: 200.0 mg/kg/injection, schedule: Q01DX Z (ip), vehicle: methylcellulose (MC) 104 % of control

CN(C)CCCNc1cc2c3ccccc3ncc2c2ccccc12
inactive: [3] 98 % of control | [4] 108 % of control | [5] 93 % of control | [6] 113 % of control | dose: 400.0 mg/kg/injection, schedule: Q01DX009 (ip), vehicle: saline with Tween-80 108 % of control | [7] 101 % of control

COc1ccc(CCNC(=O)C2(C(C)C)OC3(O)C4CCCN4C(=O)C(C(C)C)N3C2=O)cc1OC (centres undefined)
inactive: dose: 12.5 mg/kg/injection, schedule: Q04DX003 (ip), vehicle: alcohol 98 % of control | dose: 25.0 mg/kg/injection, schedule: Q04DX003 (ip), vehicle: alcohol 97 % of control | [8] 98 % of control | dose: 50.0 mg/kg/injection, schedule: Q04DX003 (ip), vehicle: alcohol 104 % of control | [9] 114 % of control | dose: 100.0 mg/kg/injection, schedule: Q04DX003 (ip), vehicle: alcohol 101 % of control | [4] 98 % of control | [6] 111 % of control

CCCNC(=O)Oc1cccc(NC(=O)OC)c1
inactive: [4] 93 % of control | [6] 97 % of control | [7] 103 % of control

Nc1ncnc2c1c(S(=O)(=O)O)cn2C1OC(CO)C(O)C1O (centres undefined)
inactive: dose: 100.0 mg/kg/injection, schedule: Q01DX001 (ip), vehicle: Klucel (hydroxypropylcellulose) (HPC) 90 % of control | dose: 200.0 mg/kg/injection, schedule: Q01DX001 (ip), vehicle: Klucel (hydroxypropylcellulose) (HPC) 93 % of control | dose: 400.0 mg/kg/injection, schedule: Q01DX001 (ip), vehicle: Klucel (hydroxypropylcellulose) (HPC) 100 % of control

Cc1cc([N+](=O)[O-])cc(Br)c1N
inactive: [6] 93 % of control | [7] 91 % of control

Cc1cccc(C)c1NC(=O)/C=C\C(=O)O
inactive: [10] 98 % of control | [11] 91 % of control | dose: 400.0 mg/kg/injection, schedule: Q04DX003 (ip), vehicle: Klucel (hydroxypropylcellulose) (HPC) 94 % of control

NC(=O)c1ccc[n+](CC(=O)Nc2ccc(Cl)cc2)c1
inactive: [4] 101 % of control | [6] 101 % of control | [7] 95 % of control

COC(=O)CC(N)C(=O)OC (centres undefined)
inactive: dose: 100.0 mg/kg/injection, schedule: Q01DX001 (ip), vehicle: saline 89 % of control | dose: 200.0 mg/kg/injection, schedule: Q01DX001 (ip), vehicle: saline 86 % of control | dose: 400.0 mg/kg/injection, schedule: Q01DX001 (ip), vehicle: saline 90 % of control

O=C1c2ccccc2S(=O)N1OCc1ccccc1 (centres undefined)
inactive: [1] 88 % of control | [2] 100 % of control

CC(CSc1ccccc1)NCCO (centres undefined)
inactive: [4] 97 % of control

COc1ccc2nc3cc(Cl)ccc3c(NC(C)CCCN(CCCl)CCCl)c2c1 (centres undefined)
inactive: dose: 0.25 mg/kg/injection, schedule: Q01DX009 (ip), vehicle: saline 108 % of control | dose: 0.25 mg/kg/injection, schedule: Q04DX003 (ip), vehicle: saline 115 % of control | dose: 0.5 mg/kg/injection, schedule: Q01DX009 (ip), vehicle: saline 117 % of control | dose: 0.5 mg/kg/injection, schedule: Q04DX003 (ip), vehicle: saline 100 % of control | dose: 1.0 mg/kg/injection, schedule: Q01DX009 (ip), vehicle: saline 104 % of control | dose: 1.0 mg/kg/injection, schedule: Q04DX003 (ip), vehicle: saline 109 % of control | dose: 2.0 mg/kg/injection, schedule: Q04DX003 (ip), vehicle: saline 116 % of control

CCOC(=O)NCC(C)(CCN1CCOCC1)c1cccc2ccccc12 (centres undefined)
inactive: [8] 93 % of control | [9] 97 % of control | [12] 94 % of control | [4] 103 % of control

COc1ccc(-c2oc3cc4c(cc3c2-c2ccc(OC)cc2)CCCC4)cc1
inactive: [4] 98 % of control | [6] 98 % of control | [7] 102 % of control

CN(C)C=Nc1ncnc2[nH]ncc12
inactive: [4] 107 % of control | dose: 150.0 mg/kg/injection, schedule: Q04DX003 (ip), vehicle: saline with Tween-80 107 % of control | [6] 123 % of control | dose: 250.0 mg/kg/injection, schedule: Q04DX003 (ip), vehicle: saline with Tween-80 123 % of control

O=C(/C(=N\O)c1ccc(Cl)cc1)c1ccc(Cl)cc1
inactive: dose: 50.0 mg/kg/injection, schedule: Q01DX009 (ip), vehicle: saline with Tween-80 100 % of control | [3] 89 % of control | [5] 92 % of control

COC(=O)C1(C)CCCC2(C)C3CCC4(C)CC3(CCO4)CCC12 (centres undefined)
inactive: [2] 87 % of control | dose: 400.0 mg/kg/injection, schedule: Q04DX002 (ip), vehicle: Klucel (hydroxypropylcellulose) (HPC) 95 % of control

CC1(C)N=C(N)N=C(N)N1c1cccc(Cl)c1
inactive: dose: 1.15 mg/kg/injection, schedule: Q01DX Z (ip), vehicle: carboxymethylcellulose (CMC) 98 % of control | dose: 2.3 mg/kg/injection, schedule: Q01DX Z (ip), vehicle: carboxymethylcellulose (CMC) 97 % of control | dose: 2.5 mg/kg/injection, schedule: Q01DX015 (ip), vehicle: saline 111 % of control | dose: 4.6 mg/kg/injection, schedule: Q01DX Z (ip), vehicle: carboxymethylcellulose (CMC) 117 % of control | dose: 5.0 mg/kg/injection, schedule: Q01DX015 (ip), vehicle: saline 114 % of control | dose: 9.2 mg/kg/injection, schedule: Q01DX Z (ip), vehicle: carboxymethylcellulose (CMC) 108 % of control | dose: 10.0 mg/kg/injection, schedule: Q01DX015 (ip), vehicle: saline 119 % of control | dose: 40.0 mg/kg/injection, schedule: Q01DX015 (ip), vehicle: saline 114 % of control | dose: 75.0 mg/kg/injection, schedule: Q01DX001 (ip), vehicle: acetone 111 % of control

CCNC(Cc1ccccc1)C1CCCO1 (centres undefined)
inactive: dose: 6.25 mg/kg/injection, schedule: Q01DX009 (ip), vehicle: saline 108 % of control | dose: 12.5 mg/kg/injection, schedule: Q01DX009 (ip), vehicle: saline 94 % of control | dose: 25.0 mg/kg/injection, schedule: Q01DX009 (ip), vehicle: saline 96 % of control | dose: 25.0 mg/kg/injection, schedule: Q04DX003 (ip), vehicle: saline 98 % of control | dose: 50.0 mg/kg/injection, schedule: Q01DX009 (ip), vehicle: saline 113 % of control | dose: 50.0 mg/kg/injection, schedule: Q04DX003 (ip), vehicle: saline 101 % of control | dose: 100.0 mg/kg/injection, schedule: Q01DX009 (ip), vehicle: saline 92 % of control | dose: 100.0 mg/kg/injection, schedule: Q04DX003 (ip), vehicle: saline 104 % of control

CCc1ccccc1NC(=O)c1cccc(C(=O)Nc2ccccc2CC)c1
inactive: dose: 50.0 mg/kg/injection, schedule: Q01DX009 (ip), vehicle: Klucel (hydroxypropylcellulose) (HPC) 98 % of control | [12] 94 % of control | [10] 91 % of control | dose: 200.0 mg/kg/injection, schedule: Q01DX009 (ip), vehicle: Klucel (hydroxypropylcellulose) (HPC) 110 % of control | [11] 88 % of control
